Measured values from patent US11787855B2, “Egg, fertilized egg, or embryo quality improving agent” (MPO, INC., priority 2016, dated 2023).

Columns and labels:
[1] = tested on: fertilized eggs of young mice; assay: In vitro culture of young mouse embryo with added CXCL5, blastocyst reaching rate; assay type: cell-based; details: vs non-added control group (FIG. 5)
Procedure: Mice past 3 weeks and 42 weeks of age confirmed the sexual cycle by vaginal smear. 10 IU of gonadotropin (ASKA Pharmaceutical. Co., Tokyo, Japan) was intraperitoneally administered at the time of proestrus. Cumulus oocyte complexes (COCs) were collected from a fallopian tube 15 hours after administration, and precultured for 30 minutes in 100 μl TYH medium (LSI Medience corporation, Tokyo, Japan). Meanwhile, ICR male mice (10-12 weeks old) were subjected to general anesthesia with somnopentyl anesthetic (Kyoritsuseiyaku Corporation, Tokyo, Japan), and cauda epididymis was extracted. A portion of the cauda epididymis was incised, and the internal sperm was extruded and collected. […] After culturing, the sperm was removed from the egg in 30 μl KSOM Medium (Merck Millipore, Darmstadt, Germany), and the number of 2 cell stage embryos was calculated at that time. […] The blastocyst reaching rate was calculated as the number of blastocysts/the number of two cell stage embryos.
In the in vitro culture system of young mouse embryo, whether or not there was a change in blastocyst reaching rate, implantation rate, offspring acquisition rate by adding the candidate factor was examined using a similar method to Example 2. Expression in the embryos of aging markers p16, p21, p53, PAI-1, and IL-6 was measured, and whether or not cell aging was induced was investigated. […]

[2] = tested on: blastocysts of young mice transplanted into pseudopregnant mice; assay: Embryo transplantation of young mouse blastocysts obtained with added CXCL5 into pseudopregnant mice; assay type: in vivo
Description: After culturing for 4 days, an embryo reaching a blastocyst stage embryo was transplanted. Recipient mice were ICR female mice of 6 to 10 weeks of age, and mated with ICR male mice vasoligated on the day before a harvesting day, and an individual whose vaginal plug could be confirmed the next day was used. General anesthesia was given with somnopentyl anesthetic, and the uterus was exposed by a back dorsal incision. The uterus was fixed with tweezers, a 30 G injection needle (Dentronics, Tokyo, Japan) was drilled at an oviduct joint, a glass capillary with blastocyst aspirated was inserted, and the embryo was transplanted into the uterus. After transplantation, the uterus was carefully returned to the body, and the retroperitoneum and the skin were sutured. At the time of transplantation, blastocysts obtained from mice of each group were transplanted into recipient mice for each individual. Cesarean section was carried out on the 19th day with the next day of egg collection as the first day. Recipient mice were euthanized and underwent laparotomy, and the uterus was extracted and the fetus was removed. Implantation rate was calculated as the number of implantation traces/the number of embryo transplantations, and the offspring acquisition rate was calculated as the litter size/the number of implantation traces.
Based on the method described in Example 2, blastocysts of the control group and the drug treated group were transplanted into pseudopregnant mice. The implantation rate and the offspring acquisition rate were then calculated.

[3] = tested on: aging markers (p16, p21, p53, PAI-1, IL-6) in young mouse embryos; assay: Expression levels of aging markers in embryos by Realtime RT-PCR; assay type: cell-based; details: embryos to which CXCL5 was added (n=30)
Procedure: In the in vitro culture system of young mouse embryo, whether or not there was a change in blastocyst reaching rate, implantation rate, offspring acquisition rate by adding the candidate factor was examined using a similar method to Example 2. Expression in the embryos of aging markers p16, p21, p53, PAI-1, and IL-6 was measured, and whether or not cell aging was induced was investigated. Specifically, the experiment was carried out as follows.
Expression levels of aging markers (p16, p21, p53, PAI-1, IL-6) in embryos to which CXCL5 was added (n=30) were measured using Realtime RT-PCR.

[4] = tested on: fertilized eggs of aged mice; assay: In vitro culture of aged mouse embryo, blastocyst reaching rate; assay type: cell-based; details: fertilized eggs of 42-week-old aged mice, different concentrations, cultured 4 days, control group vs drug treated group (FIG. 2)
Procedure: (§1) Ovulated mature eggs were collected from 42-week-old aged mice and subjected to in vitro fertilization, the obtained fertilized egg (zygote) was in vitro cultured using a culture medium to which a neutralizing antibody of a candidate factor or an antagonist of a specific receptor was added, and the blastocyst reaching rate was determined in order to verify embryo development ability. The obtained blastocysts were embryo transplanted into pseudopregnant mice, for which the implantation rate and the offspring acquisition rate were examined, and the quality of embryos was further evaluated. Specifically, the experiment was carried out as follows.
ICR female mice (CLEA Japan, Inc., Tokyo, Japan) were used as laboratory animals. The mice were bred at a room temperature of 22° C. and a humidity of 55% under light and dark environments every 12 hours. MF control diet (Oriental Yeast Co., ltd., Tokyo, Japan) was given 6 g per mouse per day. Water was allowed to be freely ingested at any time. […]
Mice past 3 weeks and 42 weeks of age confirmed the sexual cycle by vaginal smear. […] After culturing, the sperm was removed from the egg in 30 μl KSOM Medium (Merck Millipore, Darmstadt, Germany), and the number of 2 cell stage embryos was calculated at that time. […] The blastocyst reaching rate was calculated as the number of blastocysts/the number of two cell stage embryos.

[5] = tested on: blastocysts of aged mice transplanted into pseudopregnant mice; assay: Embryo transplantation of aged mouse blastocysts into pseudopregnant mice, implantation rate and offspring acquisition rate; assay type: in vivo; details: only antagonist 10 nM added (FIG. 4)
Procedure: as §1
After culturing for 4 days, an embryo reaching a blastocyst stage embryo was transplanted. Recipient mice were ICR female mice of 6 to 10 weeks of age, and mated with ICR male mice vasoligated on the day before a harvesting day, and an individual whose vaginal plug could be confirmed the next day was used. General anesthesia was given with somnopentyl anesthetic, and the uterus was exposed by a back dorsal incision. […] Implantation rate was calculated as the number of implantation traces/the number of embryo transplantations, and the offspring acquisition rate was calculated as the litter size/the number of implantation traces.

[6] = T-test *P<0.05 vs control (FIG. 7)
[7] = heat-denatured CXCL5 1,000 nM vs control group

## CXCL5: CXCL5 (ab9803, abcam), a chemokine, added to young mouse embryo culture
[1]; CXCL5 100 nM, 300 nM, 1,000 nM, cultured 4 days
  blastocyst reaching rate: not significantly different
[2]; CXCL5-added group vs control group (FIG. 6)
  offspring acquisition rate: no significant difference
[2]; CXCL5-added group vs control, *P<0.05 (FIG. 6)
  implantation rate: decreased
[2]; CXCL5 added at 1,000 nM vs non-addition control group (FIG. 6)
  implantation rate: a significant difference was observed
[3]; [6]
  expression level of IL-6: significant increase
  expression level of PAI-1: significant increase
  expression level of p21: significant increase
  expression level of p53: significant increase
[3]; vs control
  expression level of p16: no significant difference

## O=C(Nc1ccc([N+](=O)[O-])cc1O)Nc1ccccc1Br [antagonist, SB225002]
[4]
  blastocyst reaching rate: no significant difference
[5]
  implantation rate: tended to be higher
  offspring acquisition rate: tended to be higher

## heat-denatured CXCL5: CXCL5 (ab9803, abcam) heat-denatured (95° C., 5 min), used at 1,000 nM
[1]; heat-denatured (95° C., 5 min) CXCL5 1,000 nM
  blastocyst reaching rate: not significantly different
[2]; [7]
  implantation rate: no significant difference
  offspring acquisition rate: no significant difference
